# Data: ChEMBL document CHEMBL3734705, “Synthesis and in vitro cytotoxicity of novel C-12 substituted-14-deoxy-andrographolide derivatives as potent anti-cancer agents” (2015)
# Tests used:
# [1] = tested on: SN12C; assay: Cytotoxicity against human SN12C cells assessed as growth level at 10 uM after 48 hrs by SRB assay; format: functional
# [2] = Cytotoxicity against human HOP92 cells assessed as growth inhibition at 10 uM after 48 hrs by SRB assay; format: functional; conditions: HOP-92, 48 h, read-out: GI
# [3] = Cytotoxicity against human HCT15 cells assessed as growth inhibition at 10 uM after 48 hrs by SRB assay; format: functional; conditions: HCT-15, 48 h, read-out: GI
# [4] = Cytotoxicity against human SKOV3 cells assessed as growth level at 10 uM after 48 hrs by SRB assay; format: functional, SK-OV-3
# [5] = Cytotoxicity against human HCT15 cells assessed as growth level at 10 uM after 48 hrs by SRB assay; format: functional, HCT-15
# [6] = tested on: CCRF-CEM; assay: Cytotoxicity against human CCRF-CEM cells assessed as growth level at 10 uM after 48 hrs by SRB assay; format: functional
# [7] = Cytotoxicity against human SF539 cells assessed as growth inhibition at 10 uM after 48 hrs by SRB assay; format: functional; conditions: SF-539, 48 h, read-out: GI
# [8] = Cytotoxicity against human NCI-ADR-RES cells assessed as growth inhibition at 10 uM after 48 hrs by SRB assay; format: functional; conditions: read-out: GI
# [9] = Cytotoxicity against human UACC62 cells assessed as growth level at 10 uM after 48 hrs by SRB assay; format: functional, UACC-62
# [10] = tested on: NCI-H322M; assay: Cytotoxicity against human NCI-H322M cells assessed as growth inhibition at 10 uM after 48 hrs by SRB assay; format: functional; conditions: read-out: GI
# [11] = tested on: CCRF-CEM; assay: Cytotoxicity against human CCRF-CEM cells assessed as growth inhibition at 10 uM after 48 hrs by SRB assay; format: functional; conditions: read-out: GI
# [12] = tested on: KM12; assay: Cytotoxicity against human KM12 cells assessed as growth level at 10 uM after 48 hrs by SRB assay; format: functional
# [13] = tested on: EKVX; assay: Cytotoxicity against human EKVX cells assessed as growth level at 10 uM after 48 hrs by SRB assay; format: functional
# [14] = tested on: T47D; assay: Cytotoxicity against human T47D cells assessed as growth level at 10 uM after 48 hrs by SRB assay; format: functional
# [15] = Cytotoxicity against human HL-60(TB) cells assessed as growth level at 10 uM after 48 hrs by SRB assay; format: functional
# [16] = tested on: NCI-H460; assay: Cytotoxicity against human NCI-H460 cells assessed as growth inhibition at 10 uM after 48 hrs by SRB assay; format: functional; conditions: NCI-H460, 48 h, read-out: GI
# [17] = Cytotoxicity against human MOLT4 cells assessed as growth level at 10 uM after 48 hrs by SRB assay; format: functional, MOLT-4
# [18] = tested on: A498; assay: Cytotoxicity against human A498 cells assessed as growth inhibition at 10 uM after 48 hrs by SRB assay; format: functional; conditions: A498, 48 h, read-out: GI
# [19] = Cytotoxicity against human SF539 cells assessed as growth level at 10 uM after 48 hrs by SRB assay; format: functional, SF-539
# [20] = Cytotoxicity against human IGROV1 cells assessed as growth inhibition at 10 uM after 48 hrs by SRB assay; format: functional; conditions: IGROV-1, 48 h, read-out: GI
# [21] = Cytotoxicity against human OVCAR5 cells assessed as growth level at 10 uM after 48 hrs by SRB assay; format: functional, OVCAR-5
# [22] = tested on: SR; assay: Cytotoxicity against human SR cells assessed as growth inhibition at 10 uM after 48 hrs by SRB assay; format: functional; conditions: read-out: GI
# [23] = Cytotoxicity against human OVCAR8 cells assessed as growth inhibition at 10 uM after 48 hrs by SRB assay; format: functional; conditions: OVCAR-8, 48 h, read-out: GI
# [24] = Cytotoxicity against human SNB75 cells assessed as growth inhibition at 10 uM after 48 hrs by SRB assay; format: functional; conditions: SNB-75, 48 h, read-out: GI
# [25] = tested on: NCI-H322M; assay: Cytotoxicity against human NCI-H322M cells assessed as growth level at 10 uM after 48 hrs by SRB assay; format: functional
# [26] = tested on: NCI-H460; assay: Cytotoxicity against human NCI-H460 cells assessed as growth level at 10 uM after 48 hrs by SRB assay; format: functional
# [27] = tested on: ACHN; assay: Cytotoxicity against human ACHN cells assessed as growth inhibition at 10 uM after 48 hrs by SRB assay; format: functional; conditions: read-out: GI
# [28] = tested on: NCI-H226; assay: Cytotoxicity against human NCI-H226 cells assessed as growth inhibition at 10 uM after 48 hrs by SRB assay; format: functional; conditions: NCI-H226, 48 h, read-out: GI
# [29] = tested on: SK-MEL-28; assay: Cytotoxicity against human SK-MEL-28 cells assessed as growth level at 10 uM after 48 hrs by SRB assay; format: functional
# [30] = tested on: SN12C; assay: Cytotoxicity against human SN12C cells assessed as growth inhibition at 10 uM after 48 hrs by SRB assay; format: functional; conditions: read-out: GI
# [31] = tested on: MDA-MB-231; assay: Cytotoxicity against human MDA-MB-231 cells assessed as growth level at 10 uM after 48 hrs by SRB assay; format: functional
# [32] = Cytotoxicity against human UO31 cells assessed as growth level at 10 uM after 48 hrs by SRB assay; format: functional, UO-31
# [33] = tested on: A549; assay: Cytotoxicity against human A549 cells assessed as growth level at 10 uM after 48 hrs by SRB assay; format: functional
# [34] = tested on: MCF7; assay: Cytotoxicity against human MCF7 cells assessed as growth level at 10 uM after 48 hrs by SRB assay; format: functional
# [35] = Cytotoxicity against human BT549 cells assessed as growth level at 10 uM after 48 hrs by SRB assay; format: functional, BT-549
# [36] = Cytotoxicity against human RXF393 cells assessed as growth level at 10 uM after 48 hrs by SRB assay; format: functional, RXF 393
# [37] = Cytotoxicity against human RPMI8226 cells assessed as growth inhibition at 10 uM after 48 hrs by SRB assay; format: functional; conditions: RPMI-8226, 48 h, read-out: GI
# [38] = tested on: MDA-MB-468; assay: Cytotoxicity against human MDA-MB-468 cells assessed as growth level at 10 uM after 48 hrs by SRB assay; format: functional
# [39] = Cytotoxicity against human HOP62 cells assessed as growth inhibition at 10 uM after 48 hrs by SRB assay; format: functional; conditions: HOP-62, 48 h, read-out: GI
# [40] = tested on: MDA-MB-468; assay: Cytotoxicity against human MDA-MB-468 cells assessed as growth inhibition at 10 uM after 48 hrs by SRB assay; format: functional; conditions: MDA-MB-468, 48 h, read-out: GI
# [41] = tested on: NCI-H226; assay: Cytotoxicity against human NCI-H226 cells assessed as growth level at 10 uM after 48 hrs by SRB assay; format: functional
# [42] = tested on: Malme-3M; assay: Cytotoxicity against human MALME-3M cells assessed as growth level at 10 uM after 48 hrs by SRB assay; format: functional
# [43] = Cytotoxicity against human UACC257 cells assessed as growth inhibition at 10 uM after 48 hrs by SRB assay; format: functional; conditions: UACC-257, 48 h, read-out: GI
# [44] = Cytotoxicity against human TK10 cells assessed as growth level at 10 uM after 48 hrs by SRB assay; format: functional, TK-10
# [45] = tested on: NCI-H522; assay: Cytotoxicity against human NCI-H522 cells assessed as growth inhibition at 10 uM after 48 hrs by SRB assay; format: functional; conditions: NCI-H522, 48 h, read-out: GI
structure (smiles),measurement,setting,value
C=C1CC[C@@H]2[C@](C)(COC(C)=O)[C@H](OC(C)=O)CC[C@@]2(C)[C@@H]1CC(NCc1ccccc1)C1=CCOC1=O (mixture of isomers),Activity,[1],58.19%
same,inhibition of growth at 10 µM,[2],58.3%
same,inhibition of growth at 10 µM,[3],59%
same,Activity,[4],79.25%
same,Activity,[5],40.99%
same,Activity,[6],20.9%
same,inhibition of growth at 10 µM,[7],20.5%
same,inhibition of growth at 10 µM,[8],76.5%
same,Activity,[9],38.81%
same,inhibition of growth at 10 µM,[10],23%
same,inhibition of growth at 10 µM,[11],79.1%
same,Activity,[12],39.08%
same,Activity,[13],53.91%
same,Activity,[14],14.23%
same,Activity,[15],-9.93%
same,inhibition of growth at 10 µM,[16],51.6%
same,Activity,[17],-3.86%
same,inhibition of growth at 10 µM,[18],43.8%
same,Activity,[19],79.48%
same,inhibition of growth at 10 µM,[20],37.1%
same,Activity,[21],101.59%
same,inhibition of growth at 10 µM,[22],79.1%
same,inhibition of growth at 10 µM,[23],71.8%
same,inhibition of growth at 10 µM,[24],23.1%
same,Activity,[25],77.01%
same,Activity,[26],48.43%
same,inhibition of growth at 10 µM,[27],53.6%
same,inhibition of growth at 10 µM,[28],88.6%
same,Activity,[29],68.59%
same,inhibition of growth at 10 µM,[30],41.8%
same,Activity,[31],64.69%
same,Activity,[32],29.11%
same,Activity,[33],49.21%
same,Activity,[34],29.82%
same,Activity,[35],28.11%
same,Activity,[36],74.33%
same,inhibition of growth at 10 µM,[37],96.8%
same,Activity,[38],22.86%
same,inhibition of growth at 10 µM,[39],11%
same,inhibition of growth at 10 µM,[40],77.1%
same,Activity,[41],11.36%
same,Activity,[42],77.12%
same,inhibition of growth at 10 µM,[43],67.2%
C=C1CC[C@@H]2[C@](C)(CO)[C@H](O)CC[C@@]2(C)[C@@H]1C/C=C1/C(=O)OC[C@H]1O [ANDROGRAPHOLIDE],Activity,[1],81.73%
same,inhibition of growth at 10 µM,[3],38.1%
same,Activity,[4],103.76%
same,Activity,[44],97.49%
same,Activity,[5],61.89%
same,Activity,[6],23.48%
same,inhibition of growth at 10 µM,[7],16.6%
same,inhibition of growth at 10 µM,[8],16.5%
same,Activity,[9],69.92%
same,inhibition of growth at 10 µM,[10],7.26%
same,inhibition of growth at 10 µM,[11],76.5%
same,inhibition of growth at 10 µM,[45],82.9%
same,Activity,[12],80.24%
same,Activity,[13],104.75%
same,Activity,[14],87.76%
same,Activity,[15],100.04%
same,inhibition of growth at 10 µM,[16],2.02%
same,Activity,[17],98.11%
same,inhibition of growth at 10 µM,[18],12.2%
same,Activity,[19],83.41%
same,Activity,[21],104.24%
same,inhibition of growth at 10 µM,[22],20.5%
same,inhibition of growth at 10 µM,[23],15.5%
same,inhibition of growth at 10 µM,[24],38%
same,Activity,[25],92.74%
same,Activity,[26],97.98%
same,inhibition of growth at 10 µM,[27],10.2%
same,inhibition of growth at 10 µM,[28],8.26%
same,Activity,[29],95.46%
same,inhibition of growth at 10 µM,[30],18.3%
same,Activity,[31],106.75%
same,Activity,[32],89.6%
same,Activity,[33],87.82%
same,Activity,[34],57.55%
same,Activity,[35],87.11%
same,Activity,[36],125.24%
same,inhibition of growth at 10 µM,[37],16.7%
same,Activity,[38],42%
same,inhibition of growth at 10 µM,[39],3.73%
same,inhibition of growth at 10 µM,[40],58%
same,Activity,[41],91.74%
same,Activity,[42],99.78%
same,inhibition of growth at 10 µM,[43],23.5%
